Experimental findings from patent US20250179043A1, “PROCESSES FOR THE PREPARATION OF N-(1-METHYLCYCLOPROPYL)-2-(3-PYRIDINYL)-2H-INDAZOLE-4-CARBOXAMIDE AND INTERMEDIATES THEREOF” (FMC CORPORATION, priority 2022, published 2025) are described below.

SMILES strings stand for the structures.

Series [1] is described as follows: Form A and Form B interconversion (competitive) slurries, final form by XRPD. The series is classed as physicochemical. How it is done:
Relative thermodynamic stabilities of anhydrous/non-solvated Forms A and B were studied at 2-8° C., room temperature (RT) and at 71-72° C. via interconversion (competitive) slurries. In these slurries, a given solvent system was pre-saturated with compound 092 (Form A+minor Form B) at the stated temperature, and a portion of the liquid phase was filtered into a mixture of solids containing relatively equal amounts of Form A and Form B. Interconversion slurries at 2-8° C. and RT were allowed to stir for 22 days, while slurries at 71-72° C. stirred for shorter duration (2-4 days). […] The results are reported in table 13 below where: liquid phase for each slurry was pre-saturated using as-received Form A+minor Form B; solvent ratios are v/v; water activity values were calculated using UNIFAC calculator at RT; and times and temperatures are approximate.

Series [2] is described as follows: Stable polymorph form screen (slurry experiments, final form by XRPD). The note with it: for Final form (XRPD Result): start Form A + minor Form B. The series is classed as physicochemical. How it is done: Slurry experiments were conducted to identify the stable form at various conditions. In these experiments, saturated solutions in various solvents containing excess undissolved solids (starting with Form A+minor Form B) were stirred for extended durations. Slurries at room temperature (RT) and 2-8° C. were typically conducted for approximately 2 weeks, while slurries at 72-73° C. were stirred for a shorter duration (1 day) to minimize the potential for decomposition. […] The results are shown in the table 12 where the time and temperatures are approximate.

As to `CC1(NC(=O)c2cccc3nn(-c4cccnc4)cc23)CC1` [Form A, N-(1-methylcyclopropyl)-2-(3-pyridinyl)-2H-indazole 4-carboxamide], the “Relative thermodynamic stability of Forms A and B” value in series [1] (between 2° C. and 72° C., from competitive slurries) is given as “thermodynamically stable form”. For the same compound, the “Relative stability of polymorph forms” value in series [2] (between 2° C. and 73° C., from slurries) was “more stable than Form B”.

On to `CC1(NC(=O)c2cccc3nn(-c4cccnc4)cc23)CC1` [Form A + Form B, N-(1-methylcyclopropyl)-2-(3-pyridinyl)-2H-indazole 4-carboxamide], for which the “Final form (XRPD Result)” value in series [1] (competitive slurry in EtOH, 71-72° C., 2 d) is listed as “Form A”; in series [1] (competitive slurry in EtOH, RT, 22 d) it was “Form A”; in series [1] (competitive slurry in NMP/water 80:20 (aw 0.39), 2-8° C., 22 d), “Form A”; in series [1] (competitive slurry in NMP/water 80:20 (aw 0.39), 71-72° C., 2 d), “Form A”; in series [1] (competitive slurry in NMP/water 80:20 (aw 0.39), RT, 22 d), “Form A”.

`CC1(NC(=O)c2cccc3nn(-c4cccnc4)cc23)CC1` [Compound 092, N-(1-methylcyclopropyl)-2-(3-pyridinyl)-2H-indazole 4-carboxamide]: the “Final form (XRPD Result)” value in series [2] (slurry in DCM, RT, 13 d) was “Form A”; in series [2] (slurry in DMF, RT, 13 d), “Form A”; in series [2] (slurry in EtOH, 72-73° C., 1 d), “Form A”; in series [2] (slurry in EtOH, RT, 13 d), “Form A”; in series [2] (slurry in IPA, RT, 13 d), “Form A”; in series [2] (slurry in MEK, 72-73° C., 1 d), “Form A”. The “Final form (XRPD Result)” value in series [2] (slurry in MEK, RT, 13 d) is on record as “Form A”; in series [2] (slurry in MeOH, 2-8° C., 14 d) it was “Form A”; in series [2] (slurry in MeOH, RT, 13 d), “Form A”; in series [2] (slurry in acetone, RT, 13 d), “Form A”.
